Laboratory results published in the NIST ThermoML archive (doi:10.1021/je900596d).

Settings: for vapor or sublimation pressure: Liquid, Closed cell (Static) method; for mass density: 263.41 K, Fluid (supercritical or subcritical phases), Vibrating tube method

FC(F)=C(F)C(F)(F)F [hexafluoropropene]
Settings | mass density [kg/m3] | vapor or sublimation pressure [kPa]
1.9 kPa | 0.11 | –
2.4 kPa | 0.12 | –
2.9 kPa | 0.15 | –
3.5 kPa | 0.21 | –
4.3 kPa | 0.25 | –
5 kPa | 0.26 | –
5.7 kPa | 0.35 | –
6.3 kPa | 0.39 | –
7.1 kPa | 0.47 | –
7.8 kPa | 0.48 | –
8.5 kPa | 0.55 | –
9.3 kPa | 0.61 | –
10 kPa | 0.66 | –
10.7 kPa | 0.71 | –
11.4 kPa | 0.79 | –
12.1 kPa | 0.8 | –
12.9 kPa | 0.87 | –
13.6 kPa | 0.9 | –
14.4 kPa | 0.96 | –
15 kPa | 1 | –
15.8 kPa | 1.02 | –
16.5 kPa | 1.08 | –
17.1 kPa | 1.17 | –
17.9 kPa | 1.18 | –
18.6 kPa | 1.25 | –
20 kPa | 1.33 | –
21.5 kPa | 1.4 | –
22.9 kPa | 1.53 | –
24.3 kPa | 1.63 | –
25.8 kPa | 1.75 | –
27.2 kPa | 1.83 | –
28.6 kPa | 1.89 | –
30 kPa | 2.05 | –
31.4 kPa | 2.13 | –
32.8 kPa | 2.25 | –
34.2 kPa | 2.33 | –
35.5 kPa | 2.43 | –
36.3 kPa | 2.5 | –
37.7 kPa | 2.61 | –
39 kPa | 2.7 | –
40.5 kPa | 2.77 | –
41.9 kPa | 2.87 | –
43.2 kPa | 2.95 | –
44.5 kPa | 3.08 | –
45.3 kPa | 3.09 | –
46.6 kPa | 3.21 | –
48 kPa | 3.31 | –
49.4 kPa | 3.4 | –
50.7 kPa | 3.48 | –
52.1 kPa | 3.59 | –
53.4 kPa | 3.66 | –
54.7 kPa | 3.8 | –
56.1 kPa | 3.85 | –
57.5 kPa | 3.97 | –
58.8 kPa | 4.06 | –
60.1 kPa | 4.18 | –
61.4 kPa | 4.28 | –
62.8 kPa | 4.33 | –
64 kPa | 4.44 | –
65.4 kPa | 4.56 | –
66.7 kPa | 4.62 | –
68 kPa | 4.73 | –
69.3 kPa | 4.82 | –
70.5 kPa | 4.89 | –
71.3 kPa | 4.97 | –
72.5 kPa | 5.04 | –
73.9 kPa | 5.17 | –
75.2 kPa | 5.2 | –
76.4 kPa | 5.28 | –
77.7 kPa | 5.44 | –
79 kPa | 5.49 | –
80.3 kPa | 5.61 | –
81.6 kPa | 5.72 | –
82.7 kPa | 5.81 | –
83.5 kPa | 5.85 | –
84.7 kPa | 5.95 | –
86 kPa | 6 | –
87.2 kPa | 6.11 | –
88.4 kPa | 6.26 | –
89.8 kPa | 6.31 | –
91 kPa | 6.41 | –
92.3 kPa | 6.52 | –
93.5 kPa | 6.56 | –
94.6 kPa | 6.62 | –
96 kPa | 6.75 | –
97.3 kPa | 6.84 | –
98.5 kPa | 6.94 | –
99.7 kPa | 7.02 | –
100.4 kPa | 7.07 | –
101.6 kPa | 7.14 | –
102.8 kPa | 7.21 | –
104.5 kPa | 7.41 | –
105.8 kPa | 7.51 | –
107 kPa | 7.55 | –
108.2 kPa | 7.68 | –
109.5 kPa | 7.75 | –
110.7 kPa | 7.85 | –
112.4 kPa | 7.99 | –
114.2 kPa | 8.06 | –
115.5 kPa | 8.22 | –
116.7 kPa | 8.3 | –
117.9 kPa | 8.33 | –
119.6 kPa | 8.49 | –
120.8 kPa | 8.59 | –
122 kPa | 8.7 | –
123.2 kPa | 8.78 | –
124.4 kPa | 8.88 | –
126 kPa | 8.99 | –
127.2 kPa | 9.05 | –
128.4 kPa | 9.16 | –
130.2 kPa | 9.28 | –
131.8 kPa | 9.44 | –
133 kPa | 9.5 | –
134.7 kPa | 9.61 | –
136.4 kPa | 9.79 | –
138.1 kPa | 9.87 | –
139.8 kPa | 10.02 | –
141.5 kPa | 10.14 | –
143.2 kPa | 10.31 | –
144.8 kPa | 10.44 | –
146.5 kPa | 10.54 | –
148.1 kPa | 10.66 | –
149.8 kPa | 10.8 | –
151.4 kPa | 10.89 | –
153 kPa | 11.03 | –
154.7 kPa | 11.17 | –
156.3 kPa | 11.29 | –
157.9 kPa | 11.41 | –
159.6 kPa | 11.53 | –
161.2 kPa | 11.7 | –
253.26 K | – | 149.7
258.26 K | – | 184.1
263.16 K | – | 224.5
